Measurements from patent US20110294736A1, “COMPOUNDS AND METHODS FOR THE TREATMENT OF AUTOIMMUNE AND INFLAMMATORY DISEASE” (THE PROVOST, FELLOWS AND SCHOLARS OF THE HOLY AND UNDIVIDED …, priority 2008, published 2011).

Test system: BMDC
Assay: IL-12p40, IL-23, IL-12p70 and IL-10 ELISA in BMDC with p38 or ERK inhibitor, Tri-DAP and LPS or CpG
Type: cell-based, murine
Conditions: ERK inhibitor 5 μM 30 minutes before Tri-DAP 100 μg/ml
Procedure: BMDC (1×10^6) were pretreated with the p38 inhibitor, SB203580 (5 μM—FIGS. 10-11), or the ERK inhibitor UO126 (5 μM—FIGS. 12-13) for 30 minutes prior to stimulation with Tri-DAP (100 μg/ml) or medium alone. After 2 hours the cells were then stimulated with LPS (100 ng/ml—FIGS. 10 and 12), with the TLR agonist CpG (5 μg/ml—FIGS. 11 and 13) or with medium alone. Supernatants were collected after 24 hours and IL-12p40, IL-23, IL-12p70 and IL-10 concentrations were quantified by ELISA.

## N#CC(=C(/N)Sc1ccccc1N)/C(C#N)=C(\N)Sc1ccccc1N [U0126, reference compound]
LPS 100 ng/ml
  enhancement of LPS induced IL-12p70 by Tri-DAP: only marginally affected
  enhancement of LPS induced IL-23 production by Tri-DAP: suppressed
LPS 100 ng/ml or CpG 5 μg/ml
  IL-10 production by Tri-DAP with LPS or with CpG: suppressed
